Consider 23 compounds from ChEMBL document CHEMBL2390824, “Carbonic anhydrase inhibitors. Benzenesulfonamides incorporating cyanoacrylamide moieties strongly inhibit Saccharomyces cerevisiae β-carbonic anhydrase” (Bioorg Med Chem Lett, 2013).

Experiment [1] in a line: Selectivity ratio of Ki for Sachcharomyces cerevisiae beta carbonic anhydrase to Ki for human carbonic anhydrase-2.
Experiment [2] in a line: Inhibition of Sachcharomyces cerevisiae beta carbonic anhydrase after 15 mins by stopped-flow CO2 hydrase assay. On the set-up: species or system Saccharomyces cerevisiae.
Experiment [3] is described as follows: Selectivity ratio of Ki for Sachcharomyces cerevisiae beta carbonic anhydrase to Ki for human carbonic anhydrase-1.
Another experiment relates to Saccharomyces cerevisiae. Briefly: Antifungal activity against wild type Saccharomyces cerevisiae BY4742 assessed as growth inhibition after 48 hrs by microplate spectrophotometric analysis. It is filed as functional. To be noted: BY4742, 48 h, read-out: CC50.

Broadly, the Ki is a measure of affinity in units of concentration, obtained from inhibition or displacement. In the case of `COc1cc(/C=C(\C#N)C(=O)Nc2ccc(S(N)(=O)=O)cc2)ccc1O`, the Ratio Ki stood at 1.07 in experiment [1] and 5.87 in experiment [3]. Further, in experiment [2], the Ki worked out at 5.6 nM.

In the case of `CC(=O)Nc1nnc(S(N)(=O)=O)s1` [ACETAZOLAMIDE], the Ratio Ki in experiment [1] stood at 0.14; in experiment [3] it was 3.02. The affinity in experiment [2] corresponds to a Ki of 82.6 nM.

Regarding `COc1cc(OC)c(/C=C(\C#N)C(=O)Nc2ccc(S(N)(=O)=O)cc2)c(OC)c1`, the Ratio Ki in experiment [1] was 9.85; in experiment [3], 37.6. For the same compound, the Ki in experiment [2] was 0.68 nM. Further, the Growth inhibition IC50 in the experiment with Saccharomyces cerevisiae was found to be 730 nM.

In the case of `N#C/C(=C\c1ccc(Cl)cc1Cl)C(=O)Nc1ccc(S(N)(=O)=O)cc1`, the Ratio Ki in experiment [1] came to 3.61; in experiment [3], 5.17. Further, the inhibition constant (Ki) in experiment [2] is 9.1 nM.

`N#C/C(=N\Nc1ccccc1)C(=O)Nc1ccc(S(N)(=O)=O)cc1`: the results for the Ratio Ki in experiment [1] and in experiment [3] were 1.3 and 5.23, respectively. Besides, the inhibition constant (Ki) in experiment [2] worked out at 6.5 nM.

In the case of `COc1cc(/C=C(\C#N)C(=O)Nc2ccc(S(N)(=O)=O)cc2)cc(OC)c1OC`, the Ratio Ki was 1.05 in experiment [1] and 5.17 in experiment [3]. Also, the Ki in experiment [2] was 7.1 nM.

Take `N#C/C(=C\c1ccc([N+](=O)[O-])cc1)C(=O)Nc1ccc(S(N)(=O)=O)cc1`: the Ratio Ki in experiment [1] stood at 0.29; in experiment [3] it was 2.15. Besides, the Ki in experiment [2] came to 18.6 nM.

With `CN(C)c1ccc(/C=C(\C#N)C(=O)Nc2ccc(S(N)(=O)=O)cc2)cc1`, the Ratio Ki in experiment [1] came to 6.46; in experiment [3], 15.8. The affinity in experiment [2] corresponds to a Ki of 3 nM. Also, the Growth inhibition IC50 in the experiment on Saccharomyces cerevisiae was found to be 6220 nM.

As for `COc1cc(OC)c(OC)cc1/C=C(\C#N)C(=O)Nc1ccc(S(N)(=O)=O)cc1`, the Ratio Ki in experiment [1] worked out at 4.44; in experiment [3] it was 4.93. The same compound had an inhibition constant Ki in experiment [2] of 8.6 nM.

For the compound `N#C/C(C(=O)Nc1ccc(S(N)(=O)=O)cc1)=C(\S)Nc1ccccc1`, the values for the Ratio Ki in experiment [1] and in experiment [3] were 0.14 and 1.47, respectively. Besides, the Ki in experiment [2] came to 45.8 nM.

Turning to `N#C/C(=C\c1ccc(O)c(O)c1)C(=O)Nc1ccc(S(N)(=O)=O)cc1`, the figures for the Ratio Ki in experiment [1] and in experiment [3] were 5.6 and 69.9, respectively. This compound gave a Ki in experiment [2] of 0.75 nM. Moreover, the Growth inhibition IC50 in the experiment with Saccharomyces cerevisiae came out at 890 nM.

Regarding `COc1ccc(/C=C(\C#N)C(=O)Nc2ccc(S(N)(=O)=O)cc2)cc1`, the Ratio Ki in experiment [1] amounted to 9.78; in experiment [3] it was 43. This compound also registered a Ki in experiment [2] of 0.92 nM. Besides, the Growth inhibition IC50 with Saccharomyces cerevisiae is 1140 nM.

Regarding `COc1ccc(/C=C(\C#N)C(=O)Nc2ccc(S(N)(=O)=O)cc2)cc1OC`, the Ratio Ki in experiment [1] stood at 2.58; in experiment [3], 4.34. In experiment [2], this compound showed an inhibitory constant (Ki) of 7.2 nM.

In the case of `N#CCC(=O)Nc1ccc(S(N)(=O)=O)cc1`, the Ratio Ki came out at 0.7 in experiment [1] and 6.25 in experiment [3]. Also, in experiment [2], affinity was put at a Ki of 8.7 nM.

With `N#C/C(=C\C=C\c1ccccc1)C(=O)Nc1ccc(S(N)(=O)=O)cc1`, the Ratio Ki turned out to be 5.3 in experiment [1] and 3.16 in experiment [3]. For the same compound, the affinity in experiment [2], expressed as Ki, was 5.9 nM.

On to `N#C/C(=C\c1ccco1)C(=O)Nc1ccc(S(N)(=O)=O)cc1`, for which the figures for the Ratio Ki in experiment [1] and in experiment [3] were 0.72 and 0.8, respectively. The compound further gave an inhibition constant Ki in experiment [2] of 7.6 nM.

With `N=c1oc2ccccc2cc1C(=O)Nc1ccc(S(N)(=O)=O)cc1`, the Ratio Ki in experiment [1] came out at 1.88; in experiment [3], 5.67. In experiment [2], this compound registered an inhibition constant (Ki) of 5.8 nM.

On to `CC(=O)C1=NN(c2ccccc2)/C(=C(\C#N)C(=O)Nc2ccc(S(N)(=O)=O)cc2)S1`, for which the Ratio Ki in experiment [1] was 0.13; in experiment [3] it was 2.02. For the same compound, the inhibitory constant (Ki) in experiment [2] was 57.3 nM.

Take `N#C/C(=C\c1cccs1)C(=O)Nc1ccc(S(N)(=O)=O)cc1`: the figures for the Ratio Ki in experiment [1] and in experiment [3] were 0.81 and 1.6, respectively. This compound also showed an inhibition constant Ki in experiment [2] of 3.3 nM.

Take `N#C/C(=C\c1ccccc1Cl)C(=O)Nc1ccc(S(N)(=O)=O)cc1`: the Ratio Ki was determined as 7.26 in experiment [1] and 4.91 in experiment [3]. The Ki in experiment [2] stood at 8.4 nM.

On to `COc1ccccc1/C=C(\C#N)C(=O)Nc1ccc(S(N)(=O)=O)cc1`, for which the Ratio Ki in experiment [1] came out at 0.1; in experiment [3], 1.02. The compound also displayed an inhibition constant Ki in experiment [2] of 69.5 nM.

For `N#C/C(=C\c1ccc2c(c1)OCO2)C(=O)Nc1ccc(S(N)(=O)=O)cc1`, the Ratio Ki in experiment [1] worked out at 1.9; in experiment [3], 3.29. Besides, the inhibitory constant (Ki) in experiment [2] came out at 7.5 nM.

Turning to `N#C/C(=C\c1ccc(O)cc1)C(=O)Nc1ccc(S(N)(=O)=O)cc1`, the results for the Ratio Ki in experiment [1] and in experiment [3] were 13.5 and 23.6, respectively. Also, the inhibitory constant (Ki) in experiment [2] was 2.5 nM. The Growth inhibition IC50 with Saccharomyces cerevisiae was determined as 6540 nM.
